From patent US7176281B2 (priority 2003, dated 2007) come the findings set out here.

This test concerns the target T1, Group IIA purified human synovial sPLA2 (Homo sapiens, UniProt P14555).
T1 construct: purchased Cayman, USA
T1 sequence (P14555 21-144): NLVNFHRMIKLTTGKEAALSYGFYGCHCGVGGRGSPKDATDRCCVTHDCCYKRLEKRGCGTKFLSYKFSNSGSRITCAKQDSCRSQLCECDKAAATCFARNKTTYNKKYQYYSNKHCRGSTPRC
The test can be described thus: In vitro inhibition of purified human synovial sPLA2, 3H-labelled E. coli membranes. It is filed as biochemical. The note with it: for inhibition at 5 µM / Mean % Inhibition: fixed peptide concentration 5 μM.

[1] abbreviates: 3H-labelled E. coli membranes as substrate.
Setting [2] is: purified human synovial sPLA2 (Cayman).

Where a SMILES comes first, the peptide text is derived from it.

In general, IC50 refers to the concentration at which inhibition is half-maximal. Low values mean greater potency, high ones weaker potency. A word on the inhibition: it is the relative decrease from the control value, in per cent.

Regarding `CC[C@H](C)[C@H](NC(=O)[C@H](CCC(=O)O)NC(=O)[C@@H](N)C(C)C)C(=O)N[C@@H](Cc1c[nH]cn1)C(=O)N[C@H](C(=O)N[C@@H](Cc1c[nH]c2ccccc12)C(=O)N[C@@H](CCC(=O)O)C(=O)NCC(=O)N[C@H](C(=O)O)C(C)C)C(C)C` [D60, 65E-PIP (59–67)] (H-VEIHVWEGV-OH; N-terminus and C-terminus assumed), the IC50 under setting [1] turned out to be 4.2 µM.

Consider `CC[C@H](C)[C@H](NC(=O)[C@H](CC(=O)O)NC(=O)[C@@H](N)C(C)C)C(=O)N[C@@H](Cc1cnc[nH]1)C(=O)N[C@H](C(=O)N[C@@H](Cc1c[nH]c2ccccc12)C(=O)N[C@@H](C)C(=O)NCC(=O)N[C@H](C(=O)O)C(C)C)C(C)C` [D65A-PIP (59–67)] (H-VDIHVWAGV-OH), for which the half-maximal inhibitory concentration (IC50) under setting [1] was found to be 5.45 µM. Still for that read-out and setting: in the case of `CC[C@H](C)[C@H](NC(=O)[C@H](CC(=O)O)NC(=O)[C@@H](N)C(C)C)C(=O)N[C@@H](Cc1cnc[nH]1)C(=O)N[C@H](C(=O)N[C@@H](Cc1c[nH]c2ccccc12)C(=O)N[C@@H](CCC(=O)O)C(=O)NCC(=O)N[C@H](C(=O)O)C(C)C)C(C)C` [D65E-PIP (59–67)] (H-VDIHVWEGV-OH) it was 4.95 µM; in that of `CC[C@H](C)[C@H](NC(=O)[C@H](CC(=O)O)NC(=O)[C@@H](N)C(C)C)C(=O)N[C@@H](Cc1cnc[nH]1)C(=O)N[C@H](C(=O)N[C@@H](Cc1c[nH]c2ccccc12)C(=O)N[C@@H](CO)C(=O)NCC(=O)N[C@H](C(=O)O)C(C)C)C(C)C` [D65S-PIP (59–67)] (H-VDIHVWSGV-OH), 5.25 µM. `CC[C@H](C)[C@H](NC(=O)[C@H](CC(=O)O)NC(=O)[C@@H](NC(=O)[C@@H](N)CCCNC(=N)N)C(C)C)C(=O)N[C@@H](Cc1c[nH]cn1)C(=O)N[C@H](C(=O)N[C@@H](Cc1c[nH]c2ccccc12)C(=O)N[C@@H](CC(=O)O)C(=O)NCC(=O)N[C@H](C(=O)O)C(C)C)C(C)C` [PIP (58–67)] (H-RVDIHVWDGV-OH; N-terminus and C-terminus assumed) gave an inhibition at 5 µM of 59.5%. In addition, under setting [1], the half-inhibitory concentration (IC50) is 3.67 µM. Consider `CC[C@H](C)[C@H](NC(=O)[C@H](CC(=O)O)NC(=O)[C@@H](N)C(C)C)C(=O)N[C@@H](Cc1cnc[nH]1)C(=O)N[C@H](C(=O)N[C@@H](Cc1c[nH]c2ccccc12)C(=O)N[C@@H](CC(=O)O)C(=O)NCC(=O)N[C@H](C(=O)N[C@H](C(=O)N[C@@H](CC(=O)O)C(=O)N[C@H](C(=O)N[C@@H](Cc1cnc[nH]1)C(=O)N[C@H](C(=O)N[C@@H](Cc1c[nH]c2ccccc12)C(=O)N[C@@H](CC(=O)O)C(=O)NCC(=O)N[C@H](C(=O)O)C(C)C)C(C)C)[C@@H](C)CC)C(C)C)C(C)C)C(C)C` [PIP (59–67) dimer, VDIHVWDGV VDIHVWDGV] (H-VDIHVWDGVVDIHVWDGV-OH), for which half-maximal inhibition under setting [2] (IC50) was put at 1.19 µM.

With `CC[C@H](C)[C@H](NC(=O)[C@H](CC(=O)O)NC(=O)[C@@H](N)C(C)C)C(=O)N[C@@H](Cc1c[nH]cn1)C(=O)N[C@H](C(=O)N[C@@H](Cc1c[nH]c2ccccc12)C(=O)N[C@@H](CC(=O)O)C(=O)NCC(=O)N[C@H](C(=O)O)C(C)C)C(C)C` [PIP (59–67)] (H-VDIHVWDGV-OH; N-terminus and C-terminus assumed), under setting [2], the 50% inhibitory concentration (IC50) was found to be 3.8 µM.

`CC[C@H](C)[C@H](NC(=O)[C@@H](N)CC(=O)O)C(=O)N[C@@H](Cc1c[nH]cn1)C(=O)N[C@H](C(=O)N[C@@H](Cc1c[nH]c2ccccc12)C(=O)N[C@@H](CC(=O)O)C(=O)NCC(=O)N[C@H](C(=O)O)C(C)C)C(C)C` [PIP (60–67)] (H-DIHVWDGV-OH; N-terminus and C-terminus assumed) yielded an inhibition at 5 µM of 45.9%. This compound also returned an IC50 under setting [1] of 5.75 µM. Regarding DIHVWDG [PIP (60–66)], the “Mean % Inhibition” value is reported as “n.s”.

As for GRVDIHVWDGV [PIP (57–67)], the “Mean % Inhibition” value is on record as 14.22%. Still for that read-out and setting: in the case of HVWDG [PIP (62–66)] it was “n.s”; in that of IHVWDG [PIP (61–66)], “n.s”. In the case of IHVWDGV [PIP (61–67)], the “Mean % Inhibition” value is recorded as “n.s”. Regarding LGRVDIHVWDGV [PIP (56–67)], the “Mean % Inhibition” value is 34.21%.
